Target: T1, estrogen receptor alpha (ESR1) in MCF7 breast cancer cells (Homo sapiens, UniProt P03372)
T1 sequence (P03372 1-595): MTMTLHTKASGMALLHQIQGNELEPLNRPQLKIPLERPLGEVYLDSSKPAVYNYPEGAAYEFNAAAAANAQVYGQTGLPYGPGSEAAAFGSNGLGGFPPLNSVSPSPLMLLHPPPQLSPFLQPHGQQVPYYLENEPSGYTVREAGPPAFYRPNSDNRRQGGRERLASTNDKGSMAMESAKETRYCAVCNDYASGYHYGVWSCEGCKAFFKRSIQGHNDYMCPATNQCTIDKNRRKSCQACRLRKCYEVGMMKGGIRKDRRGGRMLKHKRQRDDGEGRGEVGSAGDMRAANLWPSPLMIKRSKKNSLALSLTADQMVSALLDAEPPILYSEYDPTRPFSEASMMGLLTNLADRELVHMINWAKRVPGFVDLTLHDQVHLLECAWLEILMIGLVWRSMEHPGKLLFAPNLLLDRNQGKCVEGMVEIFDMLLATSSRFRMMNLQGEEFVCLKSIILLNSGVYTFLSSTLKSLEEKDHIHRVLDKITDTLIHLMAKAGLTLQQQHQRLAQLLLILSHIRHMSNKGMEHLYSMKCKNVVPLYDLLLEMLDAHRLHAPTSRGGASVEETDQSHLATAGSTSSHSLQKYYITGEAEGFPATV
Experiment: Breast Cancer Cell ERa High Content Fluorescence Imaging Degradation Assay (ER-alpha MCF7 HCS)
Format: cell-based
Design: endogenous in cells; host or cells: MCF7 breast cancer cells; key to ERalpha (WT) MCF7HCS (Sinf): % change in ERα level; DMSO = 0%, fulvestrant = 100% change
Settings: 4 hours, plateau of the maximal effect; for ER-alpha MCF7HCS Sinf: DMSO and fulvestrant define 0% and 100% change in ESR1, Table 1a; for ERalpha (WT) MCF7HCS (Sinf): DMSO and fulvestrant define 0% and 100% change in ESR1, Table 1b
Method: All of the exemplary Formula I, II, and III compounds in Tables 1a and 1b were made and characterized by LCMS [M+H]^+ (liquid chromatography mass spectroscopy) with detection of parent ion. All of the exemplary Formula I, II, and III compounds in Tables 1a and 1b were tested for binding to ERa (Estrogen Receptor alpha) and biological activity according to the assays, protocols, and procedures of Examples 901-907. ER-alpha MCF7 HCS Sinf (%) values in Tables 1a and 1b were measured by the Breast Cancer Cell ERa High Content Fluorescence Imaging Degradation Assay of Example 901. ER-alpha MCF7 HCS EC50 (μM) values in Tables 1a and 1b were measured by the in vitro cell proliferation assays described in Examples 902 and 903. The rat uterine wet weight assays of Examples 906 and 907 allow rapid determination of compound antagonist activity in an ER responsive tissue (immature rat uterus) while competing against the native ER ligand estradiol, i.e. antagonist mode (Ashby, J.; et al (1997) Regulatory toxicology and pharmacology: RTP, 25 (3):226-31). Exemplary Formula I, II, and III compounds in Tables 1a and 1b have the following structures, corresponding names (ChemBioDraw, Version 12.0.2, CambridgeSoft Corp., Cambridge Mass.), and biological activity. Where more than one name is associated with a Formula I, II, and III compound or intermediate, the chemical structure shall define the compound.
MCF7 breast cancer cells were seeded on day 1 at a density of 10,000 cells per well in 384 well poly-lysine coated tissue culture plate (Greiner # T-3101-4), in 50 μL/well RPMI (phenol red free), 10% FBS (Charcoal stripped), containing L-glutamine. On day 2, compounds were prepared at 2 compound source concentrations: 100 μM and 1 μM (ultimately to give 2 overlapping titration curves), in a Labcyte low dead volume plate, 10 μL/well, and 10 μL of DMSO in designated wells for backfill, and 5 μM Fulvestrant (control compound) in designated wells. Compounds and controls were dispensed using a Labcyte Echo acoustic dispenser to dispense compounds with a predefined serial dilution (1.8×, 10 point, in duplicate) and appropriate backfill and control compounds (final total volume transferred was 417.5 nL and compound dispense volume ranges from 2.5 nL to 417.5 nL; 0.84% DMSO (v/v) final), ultimately producing a concentration range from 0.05 nM to 835 nM. Cell plates were incubated at 37° C., for 4 hours. Fixation and permeabilization were carried out using a Biotek EL406 plate washer and dispenser as follows. Cells were fixed by addition of 15 μL of 16% paraformaldehyde (Electron Microscopy Sciences #15710-S) directly to the 50 μL cell culture medium in each well using the peristaltic pump 5 μL cassette on a Biotek EL406 (final concentration of formaldehyde was 3.7% w/v). Samples were incubated 30 minutes. Well contents was aspirated and 50 μL/well of Phosphate Buffered Saline (PBS) containing 0.5% w/v bovine serum albumen, 0.5% v/v Triton X-100 (Antibody Dilution Buffer) was added to each well. Samples were incubated for 30 minutes. Well contents were aspirated and washed 3 times with 100 μL/well of PBS. Immunofluorescence staining of estrogen receptor alpha (ESR1) was carried out using a Biotek EL406 plate washer and dispenser as follows. The well supernatant was aspirated from the wells and 25 μL/well of anti-ESR1 mAb (F10) (Santa Cruz sc-8002) diluted 1:1000 in Antibody Dilution Buffer was dispensed. Samples were incubated for 2 hours at room temperature. Samples were washed 4 times with 100 μL/well of PBS. 25 uL (microliters)/well of secondary antibody solution (Alexafluor 488 conjugate anti-mouse IgG (LifeTechnologies # A21202) diluted 1:1000 and Hoechst 33342 1 μg/ml diluted in Antibody Dilution Buffer) were dispensed into each well. Samples were incubated for 2 hours at room temperature. Samples were washed 3 times with 100 μL/well of PBS using a Biotek EL406. Quantitative fluorescence imaging of ESR1 was carried out using a Cellomics Arrayscan V (Thermo). […]

SMILES | ER-alpha MCF7HCS Sinf [%] | ERalpha (WT) MCF7HCS (Sinf)
CC1Cc2c(c3ccccc3n2C)C(c2c(F)cc(OCCN3CC(CF)C3)cc2F)N1CC(C)(C)F (racemic) [Example 139, (±)-1-(2-6-difluoro-4-(2-(3-(fluoromethyl)azetidin-1-yl)ethoxy)phenyl)-2-(2-fluoro-2-methylpropyl)-3,5-dimethyl-2,3,4,5-tetrahydro-1H-pyrido[4,3-b] indole] | −88.6 | 
CC(C)C(=O)N1[C@H](c2c(F)cc(OCCN3CC(CF)C3)cc2F)c2sc3ccccc3c2C[C@H]1C (relative stereo) [Example 102, 1-((1,3-trans)-1-(2,6-difluoro-4-(2-(3-(fluoromethyl)azetidin-1-yl)ethoxy)phenyl)-3-methyl-3,4-dihydrobenzo[4,5]thieno[2,3-c]pyridin-2(1H)-yl)-2-methylpropan-1-one] | −64.5 | 
C[C@@H]1Cc2[nH]c3ccccc3c2[C@@H](c2c(F)cc(OC3CN(CCCF)C3)cc2F)N1CC(F)(F)CO (relative stereo) [Example 144, trans-3-(1-(2,6-difluoro-4-(1-(3-fluoropropyl)azetidin-3-yloxy)phenyl)-3-methyl-3,4-dihydro-1H-pyrido[4,3-b]indol-2(5H)-yl)-2,2-difluoropropan-1-ol] | −98.8 | 
CC(C)C(=O)N1[C@H](c2c(F)cc(OCCN3CC(CF)C3)cc2F)c2oc3ccccc3c2C[C@H]1C (single isomer, unassigned) [Example 101] | −94.5 | 
C[C@H]1CN(CC(C)(C)F)[C@H](c2c(F)cc(OCCN3CC(CF)C3)cc2F)c2[nH]c3ccccc3c21 (single isomer, unassigned) [Example 107] | −97.8 | 
C[C@@H]1CN(CC(C)(C)F)[C@H](c2c(F)cc(OCCN3CC(CF)C3)cc2F)c2[nH]c3ccccc3c21 (single isomer, unassigned) [Example 108] | −92.4 | 
C[C@@H]1CN(CC(C)(C)F)[C@@H](c2c(F)cc(OCCN3CC(CF)C3)cc2F)c2[nH]c3ccccc3c21 (single isomer, unassigned) [Example 109] | −74.6 | 
C[C@@H]1Cc2c([nH]c3ncccc23)[C@@H](c2c(F)cc(OC3CN(CCCF)C3)cc2F)N1CC(C)(C)F (single isomer, unassigned) [Example 120] | −88.0 | 
C[C@@H]1Cc2sc3ccccc3c2[C@H](c2ccc(OCCN3CC(CF)C3)cc2)N1CC(C)(C)F (single isomer, unassigned) [Example 130] | −76.8 | 
C[C@H]1Cc2[nH]c3ccccc3c2[C@H](c2c(F)cc(OCCN3CC(CF)C3)cc2F)N1CC(C)(C)F (single isomer, unassigned) [Example 136] | −51 | 
C[C@@H]1Cc2[nH]c3ccccc3c2[C@@H](c2c(F)cc(OCCN3CC(CF)C3)cc2F)N1CC(F)(F)CO (single isomer, unassigned) [Example 147] | −95.7 | 
C[C@H]1Cc2[nH]c3ccccc3c2[C@H](c2c(F)cc(OCCN3CC(CF)C3)cc2F)N1CC(F)(F)CO (single isomer, unassigned) [Example 148] | −79 | 
C[C@H]1Cc2[nH]c3ccccc3c2[C@H](c2c(F)cc(NC3CN(CCCF)C3)cc2F)N1CC(F)(F)CO (single isomer, unassigned) [Example 154] | −30 | 
C[C@@H]1Cc2[nH]c3ccccc3c2[C@@H](c2c(F)cc(NC3CN(CCCF)C3)cc2F)N1CC(F)(F)CO (single isomer, unassigned) [Example 155] | −97.4 | 
C[C@@H]1Cc2c(oc3ccccc23)[C@@H](c2c(F)cc(NC3CN(CCCF)C3)cc2F)N1CC(F)(F)CO (single isomer, unassigned) [Example 157] | −102 | 
C[C@H]1Cc2c(oc3ccccc23)[C@H](c2c(F)cc(NC3CN(CCCF)C3)cc2F)N1CC(F)(F)CO (single isomer, unassigned) [Example 158] | −88.8 | 
C[C@@H]1Cc2c(sc3ccccc23)[C@@H](c2c(F)cc(NC3CN(CCCF)C3)cc2F)N1CC(F)(F)CO (single isomer, unassigned) [Example 159] | −102 | 
C[C@H]1Cc2c(sc3ccccc23)[C@H](c2c(F)cc(NC3CN(CCCF)C3)cc2F)N1CC(F)(F)CO (single isomer, unassigned) [Example 160] | −96.9 | 
C[C@@H]1Cn2c(cc3ccccc32)[C@@H](c2c(F)cc([C@@H](O)C3CN(CCCF)C3)cc2F)N1CC(F)(F)CO (single isomer, unassigned) [Example 163] |  | −100
C[C@@H]1Cn2c(cc3ccccc32)[C@@H](c2c(F)cc([C@H](O)C3CN(CCCF)C3)cc2F)N1CC(F)(F)CO (single isomer, unassigned) [Example 164] |  | −98.6
C[C@@H]1Cc2oc3ccccc3c2[C@@H](c2c(F)cc(OCCN3CC(CF)C3)cc2F)N1CC(C)(C)F (stereo in doubt) [Example 167, 1-(2,6-difluoro-4-(2-(3-(fluoromethyl)azetidin-1-yl)ethoxy)phenyl)-2-(2-fluoro-2-methylpropyl)-3-methyl-1,2,3,4-tetrahydrobenzofuro [3,2-c]pyridine] |  | −96
C[C@H]1Cc2oc3ccccc3c2[C@H](c2c(F)cc(OCCN3CC(CF)C3)cc2F)N1CC(C)(C)F (stereo in doubt) [Example 168, 1-(2,6-difluoro-4-(2-(3-(fluoromethyl)azetidin-1-yl)ethoxy)phenyl)-2-(2-fluoro-2-methylpropyl)-3-methyl-1,2,3,4-tetrahydrobenzofuro [3,2-c]pyridine] |  | −97
CC(C)(F)CN1CCCc2c([nH]c3ccccc23)[C@H]1c1c(F)cc(OCCN2CC(CF)C2)cc1F [Example 103, (R)-1-(2,6-difluoro-4-(2-(3-(fluoromethyl)azetidin-1-yl)ethoxy)phenyl)-2-(2-fluoro-2-methylpropyl)-1,2,3,4,5,10-hexahydroazepino[3,4-b]indole] | −96.7 | 

Reference: US10654867B2 (Genentech, Inc., priority 2016, dated 2020)
